Laboratory results as given in patent publication US20160194299A1 (priority 2013, published 2016).
Converted amounts (≈) assume the structure as drawn. Where two headings read alike, the source gives them in different places.

Experiments:
[1] = in vitro; conditions: African green monkey
[2] = system: Mtb; experiment: microbe, parasite or virus in culture; type: cell-based, Mycobacterium tuberculosis; conditions: Mycobacterium tuberculosis
[3] = read-out: MIC, microplate alamar blue assay (MABA; I)

Row | Compound | CC50 [1] [µg/mL] | MIC ([2]; read-out: MIC (I)) [µg/mL] | MIC [2, 3] [µg/mL]
1 | CC(C)(C)OC(=O)N1CCN(C(=O)c2ccsc2NC(=O)c2nc3ccccc3s2)CC1 [Compound 227] | > 50 |  | 
2 | CC(C)(OC(=O)NC(=O)c1ccsc1NC(=O)c1nc2ccccc2s1)C(F)(F)F [Compound 25] | 25 to 50 (≈ 54.7 to 109 µM) | < 1 | 
3 | CCOC(=O)NC(=O)c1ccsc1NC(=O)c1ccc2nsnc2c1 [Compound 448] |  |  | < 1
4 | CCOC(=O)NC(=O)c1ccsc1NC(=O)c1nc2cc(CNC(=O)OC(C)(C)C)cnc2s1 [Compound 411] | 25 to 50 (≈ 49.4 to 98.9 µM) |  | < 1
5 | CC(C)OC(=O)NC(=O)c1ccsc1NC(=O)c1cc2cccc(F)c2s1 [Compound 408] | < 25 |  | < 1
6 | CCOC(=O)NC(=O)c1ccsc1NC(=O)c1ccn2cnnc2c1 [Compound 451] |  |  | < 1
7 | CCOC(=O)NC(=O)c1ccsc1NC(=O)c1csc2c1CCN(S(C)(=O)=O)C2 [Compound 230] | > 50 |  | 
8 | CCOC(=O)NC(=O)c1cc(Cl)sc1NC(=O)c1nc2ccccc2s1 [Compound 15] |  | < 1 | 
9 | CC(C)OC(=O)NC(=O)c1ccsc1NC(=O)c1ccn2cnnc2c1 [Compound 452] |  |  | < 1
10 | CCCCOC(=O)NC(=O)c1ccsc1NC(=O)c1nc2ccccc2s1 [Compound 19] |  | < 1 | 
11 | CCOC(=O)NC(=O)c1ccsc1NC(=O)c1cc(NC(C)=O)ccn1 [Compound 111] |  | > 3 | 
12 | O=C(Nc1sccc1C(=O)NCC1CCCO1)c1nc2cnccc2s1 (centres unmarked) [Compound 455] |  |  | > 3
13 | O=C(Nc1sccc1C(=O)N1CCNC1=O)c1nc2ccccc2s1 [Compound 226] | > 50 |  | 
14 | CCOC(=O)NC(=O)c1ccsc1NC(=O)c1ccc2ncsc2c1 [Compound 42] | < 25 | < 1 | 
15 | O=C(NC(=O)c1ccsc1NC(=O)c1nc2cnccc2s1)OCC(F)(F)F [Compound 406] | < 25 |  | < 1
16 | CCOC(=O)NC(=O)c1ccsc1NC(=O)c1ccc2c(c1)OCO2 [Compound 27] | < 25 | < 1 | 
17 | CCOC(=O)NC(=O)c1ccsc1NC(=O)c1nc2ccc(C)nc2s1 [Compound 224] | > 50 |  | 
18 | O=C(Nc1sccc1C(=O)Nc1nccs1)c1nc2cnccc2s1 [Compound 435] | 25 to 50 (≈ 64.5 to 129 µM) |  | > 3
19 | CCOC(=O)NC(=O)c1ccccc1NC(=O)c1nc2ccccc2s1 [Compound 214] | > 50 |  | 
20 | CCOC(=O)NC(=O)c1ccsc1NC(=O)c1cncc(NC(C)=O)c1 [Compound 22] |  | < 1 | 
21 | O=C(NC(=O)c1ccsc1NC(=O)c1nc2ncccc2s1)OCC(F)(F)F [Compound 434] | 25 to 50 (≈ 58.1 to 116 µM) |  | > 3
22 | O=C(Nc1sccc1C(=O)Nc1ncccn1)c1nc2cnccc2s1 [Compound 441] | 25 to 50 (≈ 65.4 to 131 µM) |  | < 1
23 | CC(OC(=O)NC(=O)c1ccsc1NC(=O)c1nc2ccccc2s1)C(F)(F)F (centres unmarked) [Compound 24] | < 25 | < 1 | 
24 | CCOC(=O)NC(=O)c1cc(C)sc1NC(=O)c1nc2ccccc2s1 [Compound 14] |  | < 1 | 
25 | CC(C)OC(=O)NC(=O)c1ccsc1NC(=O)c1cn2ccc(C#N)cc2n1 [Compound 433] | 25 to 50 (≈ 62.9 to 126 µM) |  | 1 to 3 (≈ 2.52 to 7.55 µM)

Row | Compound | CC50 [1] [µg/mL] | MIC ([2]; read-out: MIC (I)) [µg/mL] | MIC [2, 3] [µg/mL]
26 | CCOC(=O)NC(=O)c1ccsc1NC(=O)c1cc2c(s1)CCCC2 [Compound 239] | > 50 |  | 
27 | O=C(Nc1sccc1C(=O)Nc1ccccn1)c1nc2cnccc2s1 [Compound 454] |  |  | > 3
28 | CCOC(=O)NC(=O)c1ccsc1NC(=O)c1ccc2sc(C(C)(C)C)nc2c1 [Compound 415] | > 50 |  | > 3
29 | CCOC(=O)NC(=O)c1ccsc1NC(=O)c1nc2cc(CN)cnc2s1 [Compound 416] | > 50 |  | 1 to 3 (≈ 2.47 to 7.4 µM)
30 | COC(=O)c1cccnc1NC(=O)c1nc2ccccc2s1 [Compound 444] |  |  | 1 to 3 (≈ 3.19 to 9.57 µM)
31 | COC(=O)NC(=O)c1ccsc1NC(=O)c1nc2ccccc2s1 [Compound 21] |  | < 1 | 
32 | CCNC(=O)NC(=O)c1ccsc1NC(=O)c1nc2ccccc2s1 [Compound 109] |  | > 3 | 
33 | CC(C)OC(=O)NC(=O)c1ccsc1NC(=O)c1ccc2ncsc2c1 [Compound 410] | < 25 |  | < 1
34 | CCOC(=O)NC(=O)c1ccsc1NC(=O)c1nc2ccc(OC)cc2s1 [Compound 412] | > 50 |  | < 1
35 | CN1CCN(C(=O)c2ccsc2NC(=O)c2nc3ccccc3s2)CC1 [Compound 225] | 25 to 50 (≈ 64.7 to 129 µM) |  | 
36 | Nc1nnc(-c2ccsc2NC(=O)c2nc3ccccc3s2)o1 [Compound 210] | > 50 |  | 
37 | CCOC(=O)NC(=O)c1c(C)csc1NC(=O)c1nc2ccccc2s1 [Compound 44] | > 50 | 1 to 3 (≈ 2.57 to 7.7 µM) | 
38 | CCOC(=O)NC(=O)c1ncsc1NC(=O)c1nc2ccccc2s1 [Compound 106] |  | > 3 | 
39 | O=C(NC(=O)c1ccsc1NC(=O)c1nc2ccccc2s1)OCCN1CCOCC1 [Compound 38] | > 50 | < 1 | 
40 | CCOC(=O)NC(=O)c1ccsc1NC(=O)c1cc2c(s1)CCN(S(C)(=O)=O)C2 [Compound 232] | > 50 |  | 
41 | CCOC(=O)NC(=O)c1ccsc1NC(=O)c1ccnc2cc(Cl)ccc12 [Compound 450] |  |  | > 3
42 | CCOC(=O)NC(=O)c1ccsc1NC(=O)c1csc2c1CCCC2 [Compound 231] | < 25 |  | 
43 | CCOC(=O)NC(=O)c1ccsc1NC(=O)c1ccc2sc(C(C)C)nc2c1 [Compound 413] | > 50 |  | < 1
44 | O=C(Nc1sccc1C(=O)Nc1cnccn1)c1nc2cnccc2s1 [Compound 440] | 25 to 50 (≈ 65.4 to 131 µM) |  | > 3
45 | CC(C)OC(=O)NC(=O)c1ccsc1NC(=O)c1cc(=O)c2ccccc2o1 [Compound 401] | < 25 |  | < 1
46 | CCOC(=O)NC(=O)c1ccsc1NC(=O)c1cc(=O)c2ccccc2o1 [Compound 400] | < 25 |  | < 1
47 | COc1ccc2c(c1)C=C(C(=O)Nc1sccc1C(=O)NC(=O)OC(C)C)CO2 [Compound 404] | < 25 |  | < 1
48 | O=C(Nc1sccc1C(=O)OC1CCCCC1)c1nc2ccccc2s1 [Compound 430] | > 50 |  | > 3
49 | O=C(Nc1sccc1C(=O)Nc1ncco1)c1nc2cnccc2s1 [Compound 456] |  |  | 1 to 3 (≈ 2.69 to 8.08 µM)
50 | CCOS(=O)(=O)NC(=O)c1ccsc1NC(=O)c1nc2ccccc2s1 [Compound 108] |  | > 3 | 

Row | Compound | CC50 [1] [µg/mL] | MIC ([2]; read-out: MIC (I)) [µg/mL] | MIC [2, 3] [µg/mL]
51 | CCOC(=O)NC(=O)c1ccsc1NC(=O)c1ccc(-c2csc(C)n2)cc1 [Compound 241] | > 50 |  | 
52 | CN(C)CCOC(=O)NC(=O)c1ccsc1NC(=O)c1nc2ccccc2s1 [Compound 39] | > 50 | > 3 | 
53 | O=C(Nc1sccc1C(=O)OC1CCCC1)c1nc2ccccc2s1 [Compound 429] | > 50 |  | > 3
54 | CCOC(=O)NC(=O)c1ccsc1NC(=O)Cc1nc2ccccc2s1 [Compound 238] | 25 to 50 (≈ 64.2 to 128 µM) |  | 
55 | CCOC(=O)NC(=O)c1ccsc1NC(=O)c1nc2ccncc2s1 [Compound 458] |  |  | > 3
56 | CNC(=O)CNC(=O)c1ccsc1NC(=O)c1nc2ccccc2s1 [Compound 235] | > 50 |  | 
57 | CC(C)(C)OC(=O)NC(=O)c1ccsc1NC(=O)c1nc2ccccc2s1 [Compound 23] |  | < 1 | 
58 | CCOC(=O)NC(=O)c1cnn(C)c1NC(=O)c1nc2ccccc2s1 [Compound 105] |  | > 3 | 
59 | CCOC(=O)NC(=O)c1ccsc1NC(=O)c1nc2c(s1)N(S(C)(=O)=O)CCC2 [Compound 233] | > 50 |  | 
60 | COC(=O)CNC(=O)c1ccsc1NC(=O)c1nc2ccccc2s1 [Compound 234] | > 50 |  | 
61 | CCOC(=O)NC(=O)c1ccsc1NC(=O)c1nc(-c2ccccc2)cs1 [Compound 240] | > 50 |  | 
62 | CCOC(=O)NC(=O)c1ccsc1NCc1nc2ccccc2s1 [Compound 209] | > 50 |  | 
63 | CCOC(=O)NC(=O)c1cc(C)sc1NC(=O)c1nc2cnccc2s1 [Compound 443] |  |  | < 1
64 | COC(=O)CCCNC(=O)c1ccsc1NC(=O)c1nc2ccccc2s1 [Compound 236] | > 50 |  | 
65 | CCOC(=O)NC(=O)c1c(NC(=O)c2nc3ccccc3s2)sc(C#N)c1C [Compound 216] | > 50 |  | 
66 | CCOC(=O)NC(=O)c1cc(C)sc1NC(=O)c1nc2ncccc2s1 [Compound 446] |  |  | < 1
67 | O=C(Nc1sccc1C(=O)N1CCOC1=O)c1nc2ccccc2s1 [Compound 107] |  | > 3 | 
68 | CCOC(=O)NC(=O)c1cc(Cl)sc1NC(=O)c1nc2cnccc2s1 [Compound 445] |  |  | < 1
69 | Cc1nnc(NC(=O)c2ccsc2NC(=O)c2nc3ccccc3s2)s1 [Compound 110] |  | > 3 | 
70 | CC(C)OC(=O)NC(=O)c1ccsc1NC(=O)c1cccc2cc(Cl)ccc12 [Compound 447] |  |  | 1 to 3 (≈ 2.4 to 7.2 µM)
71 | O=C(Nc1sccc1C(=O)N1CCNCC1)c1nc2ccccc2s1 [Compound 228] | < 25 |  | 
72 | CC(C)OC(=O)NC(=O)c1ccsc1NC(=O)c1ccc2nsnc2c1 [Compound 449] |  |  | < 1
73 | CCOC(=O)NC(=O)c1ccsc1NC(=O)c1nc2ncc(C)cc2s1 [Compound 457] |  |  | < 1
